# Tested on: Min mouse (C57BL/6J-Min/+)
# Test: in vivo test procedure emulating FAP: Min mouse (C57BL/6J-Min/+), compound blended with AIN-93G chow for 60 days, intestinal polyps counted on day 61
# Details: not given
# Protocol: The polyps that develop in Min mice express EGFR and have activated COX-2.
# On day 61, the animals were euthanized with CO2 inhalation, and the entire intestinal tract from stomach to anus was removed. The intestinal tract was injected with Bouins fixative, and allowed to fix for several days. The intestinal tracts were then opened and the number of polyps counted.
row,Structure (SMILES),reducing polyp numbers in mice
1,"CCOc1cc2ncc(C#N)c(Nc3ccc(F)c(Cl)c3)c2cc1NC(=O)C=CCN(C)C [Example 399, 4-Dimethylamino-but-2-enoic acid [4-(3-chloro-4-fluoro-phenylamino)-3-cyano-7-ethoxy-quinolin-6-yl]-amide]",effective in significantly reducing polyp numbers

# Tested on: min mouse
# Test: not given
# Details: background statement on NSAID's; cited from earlier work
row,Structure (SMILES),intestinal polyp formulation in min mice (NSAID's)
1,CCc1cccc2c3c([nH]c12)C(CC)(CC(=O)O)OCC3 (stereo not shown) [etodoloc],can reduce (but not eradicate) intestinal polyp formulation
2,CC1=C(CC(=O)O)c2cc(F)ccc2/C1=C\c1ccc([S+](C)[O-])cc1 (stereo not shown) [sulindac],can reduce (but not eradicate) intestinal polyp formulation

# Tested on: not given
# Test: not given
# Details: not given
row,Structure (SMILES),melting point
1,"COc1cc2ncc(C#N)c(Nc3cc(Br)c(O)c(Br)c3)c2cc1OC [Example 291, 4-(3,5-Dibromo-4-hydroxy-phenylamino)-6,7-dimethoxy-quinoline-3-carbonitrile]",> 250 °C
2,"CN1CCN(CC#CC(=O)Nc2ccc3ncc(C#N)c(Nc4cccc(Br)c4)c3c2)CC1 [Example 190, N-[4-[(3-Bromophenyl)amino]-3-cyano-6-quinolinyl]-4-(N-methylpiperazino)-2-butynamide]",190 °C (dec.)
3,"N#Cc1cnc2ccc(NC(=O)C#CCN3CCOCC3)cc2c1Nc1cccc(Br)c1 [Example 58, N-[4-[(3-Bromophenyl)amino]-3-cyano-6-quinolinyl]-4-morpholino-2-butynamide]",112 to 115 °C
4,"COc1ccc2ncc(C#N)c(Nc3cc(O)c(Cl)cc3F)c2c1 [Example 285, 4-(4-Chloro-2-fluoro-5-hydroxy-phenylamino)-6-methoxy-quinoline3-carbonitrile]",228 to 230 °C
5,"CCc1ccc(Nc2c(C#N)cnc3cc(OC)c(OC)cc23)cc1 [Example 335, 4-(4-Ethylphenylamino)-6,7-dimethoxyquinoline-3-carbonitrile]",248 to 250 °C
6,"N#Cc1cnc2ccc(N)cc2c1Nc1ccc(F)c(Br)c1 [Example 196, 6-amino-4-[(3-Bromo-4-fluorophenyl)amino]-3-quinolinecarbonitrile]",210 to 212 °C
7,"COc1ccc(OC)c2c(Nc3cccc(N(C)C)c3)c(C#N)cnc12 [Example 242, 4-(3-Dimethylamino-phenylamino)-5,8-dimethoxy-quinoline-3-carbonitrile]",103 to 105 °C
8,"COc1cc2ncc(C#N)c(Nc3ccc(C)c(Cl)c3)c2cc1OC [Example 370, 4-(3-Chloro-4-methyl-phenylamino)-6,7-dimethoxy-quinoline-3-carbonitrile]",> 250 °C
9,"COc1cc2ncc(C#N)c(Nc3ccccc3C(N)=O)c2cc1OC [Example 297, 2-(3-Cyano-6,7-dimethoxy-quinolin-4-ylamino)-benzamide]",238 to 240.5 °C
10,"COc1cc2ncc(C#N)c(Nc3c(C)cccc3O)c2cc1OC [Example 246, 4-(2-Hydroxy-6-methyl-phenylamino)-6,7-dimethoxy-quinoline-3-carbonitrile]",245 to 247 °C
11,"COc1cc2ncc(C#N)c(Nc3ccc(C)cc3O)c2cc1OC [Example 287, 4-(2-Hydroxy-4-methyl-phenylamino)-6,7-dimethoxy-quinoline-3-carbonitrile]",> 250 °C
12,"CN(C)CC#CC(=O)Nc1ccc2ncc(C#N)c(Nc3ccc(F)c(Cl)c3)c2c1 [Example 193, N-[4-[(3-Chloro-4-fluorophenyl)amino]-3-cyano-6-quinolinyl]-4-dimethylamino-2-butynamide]",225 °C (dec.)
13,"COc1cc2ncc(C#N)c(Nc3ccc(CCO)cc3)c2cc1OC [Example 299, 4-[4-(2-Hydroxy-ethyl)-phenylamino]-6,7-dimethoxy-quinoline-3-carbonitrile]",208 to 210 °C

# Source: patent publication US6384051B1, “Method of treating or inhibiting colonic polyps” (American Cyanamid Company, priority 2000, dated 2002)
